“Also recorded” adds a separate entry of the source.
Experiments:
[1] = 25° C.; cited from earlier work
[2] = test system: 2PN (two pronuclei) mouse embryos; assay: Mouse embryo development after incubation in fluorinated compounds; assay type: cell-based; settings: for # embryos showing degeneration / Mean T2 to T3 (mean time from 2-cell stage to 3-cell stage) / Pace of embryo development compared to untreated control embryos / Mean T2 (mean time taken to reach the 2-cell stage): incubated 3 minutes in compound; for # embryos showing degeneration / Pace of embryo development compared to untreated control embryos: cultured 5 days; for Mean T2 (mean time taken to reach the 2-cell stage): embryos that reached 2-cell stage; for # 2-cell stage / # 3-cell stage / # expanded blastocyst / # hatching/hatched blastocyst: number of embryos; for # 2-cell stage / # 3-cell stage / # expanded blastocyst / # hatching/hatched blastocyst / # 2-cell stage (%) / # 3-cell stage (%) / # expanded blastocyst (%) / # hatching/hatched blastocyst (%): incubated 3 minutes, within 5-day incubation; for # 2-cell stage (%) / # 3-cell stage (%) / # expanded blastocyst (%) / # hatching/hatched blastocyst (%): proportion of 2PN embryos
Experimental: The effects of incubation in different fluorinated compounds on embryo development were tested.
223 2PN (two pronuclei) mouse embryos were randomly divided into four groups: A) raw perfluoro-n-octane; B) a commercially available perfluorohydrocarbon mixture previously used as operating liquid for Piezo-ICSI; C) purified perfluoro-n-octane; and D) untreated control.
Embryos in groups A, B and C were incubated for 3 minutes in the respective compound then transferred to culture medium. Embryos in all groups were then cultured for 5 days in an incubator (37.5° C., relative 100% humidity, 5% CO2 in air).
The number of embryos in each group showing signs of degeneration was counted.
The number of embryos in each group reaching the 2-cell, 3-cell, expanded blastocyst and hatching/hatched blastocyst stages of development within the 5-day incubation was counted.
The mean time taken to reach the 2-cell stage (T2) by those embryos that did, and the mean time taken for those embryos to develop from the 2-cell stage to the 3-cell stage (T3) were measured.

oocytes = assay: Assisted reproduction using Piezo-ICSI with purified perfluoro-n-octane operating liquid compared to c-ICSI; assay type: in vivo, human; settings: Piezo-ICSI with purified perfluoro-n-octane as operating liquid
Excerpt: The efficacy of assisted reproduction using c-ICSI was compared to using Piezo-ICSI was compared. Purified perfluoro-n-octane was used as operating liquid for Piezo-ICSI.
In particular, 69 patients having at least 6 mature oocytes were randomly divided into two groups. The first group underwent assisted reproduction in which sperm was introduced into oocytes using c-ICSI. The second group underwent assisted reproduction in which sperm was introduced into oocytes using Piezo-ICSI.
c-ICSI was performed using Eppendorf 2K control with ICSI micropipettes (TPC, Cooper Surgical). Piezo-ICSI was performed using PMM and Piezo micropipettes (Primetech). Purified perfluoro-n-octane was used as operating liquid in Piezo-ICSI.

| Structure (SMILES) | Surface tension [1] | Vapour pressure [1] | # embryos showing degeneration [2] | Additional embryos for vitrification on average compared to c-ICSI (oocytes) | Average number of embryos for vitrification (oocytes; c-ICSI 2.7) | Oocyte degeneration rate (oocytes; c-ICSI 10.2%) | Utilisation rate (oocytes; c-ICSI 45.6%) | Clinical pregnancy rate (oocytes; c-ICSI 50%) | Fertilization rate (oocytes successfully fertilised) (oocytes; c-ICSI 65.9%, p<0.05) | Mean T2 to T3 (mean time from 2-cell stage to 3-cell stage) [2] | Pace of embryo development compared to untreated control embryos [2] | Mean T2 (mean time taken to reach the 2-cell stage) [2] | # 2-cell stage [2] | # 3-cell stage [2] | # expanded blastocyst [2] | # hatching/hatched blastocyst [2] | # 2-cell stage (%) [2] | # 3-cell stage (%) [2] | # expanded blastocyst (%) [2] | # hatching/hatched blastocyst (%) [2] |
| --- | --- | --- | --- | --- | --- | --- | --- | --- | --- | --- | --- | --- | --- | --- | --- | --- | --- | --- | --- | --- |
| FC(F)(F)C(F)(F)C(F)(F)C(F)(F)C(F)(F)C(F)(F)C(F)(F)C(F)(F)F [perfluoro-n-octane, 1,1,1,2,2,3,3,4,4,5,5,6,6,7,7,8,8,8-octadecafluorooctane] | 16 mN/m | 3.4 mbar | none |  |  |  |  |  |  |  |  |  |  |  |  |  |  |  |  |  |
| FC(F)(F)C(F)(F)C(F)(F)C(F)(F)C(F)(F)C(F)(F)C(F)(F)C(F)(F)F [purified perfluoro-n-octane, perfluoro-n-octane] |  |  | 0 | 1 | 3.8 | 3.8% | 47.3% | 55% | 80.6% | 1293 min | developed at a pace comparable to untreated control embryos; also recorded: does not negatively affect embryo development | 1304 min | 51 | 48 | 45 | 33 | (93%) | (87%) | 82% | 60% |
| FC(F)(F)C(F)(F)C(F)(F)C(F)(F)C(F)(F)C(F)(F)C(F)(F)C(F)(F)F [raw perfluoro-n-octane, perfluoro-n-octane] |  |  | 0 |  |  |  |  |  |  | 1518 min | developed more slowly than control embryos | 1394 min | 52 | 45 | 36 | 9 | (95%) | (82%) | 65% | 16% |

— patent publication US20220389359A1, “USE OF PERFLUORO-N-OCTANE FOR PIEZO-MEDIATED INTRACYTOPLASMIC SPERM INJECTION” (priority 2019, published 2022)
